Laboratory results reported in patent publication US9682966B2, “Kappa opioid ligands” (The Scripps Research Institute, priority 2012, dated 2017).

Molecular target: kappa opioid receptor (OPRK1) (Homo sapiens (Human), UniProt P41145)
Assay: OPRK1 antagonist assay (b-arrestin-2-TEV / b-lactamase reporter, EC80 U-50488 challenge)
Assay type: cell-based
Conditions: % inhibition to which the printed IC50 value refers, if other than 50%

Sequence of kappa opioid receptor (OPRK1) (P41145 whole entry): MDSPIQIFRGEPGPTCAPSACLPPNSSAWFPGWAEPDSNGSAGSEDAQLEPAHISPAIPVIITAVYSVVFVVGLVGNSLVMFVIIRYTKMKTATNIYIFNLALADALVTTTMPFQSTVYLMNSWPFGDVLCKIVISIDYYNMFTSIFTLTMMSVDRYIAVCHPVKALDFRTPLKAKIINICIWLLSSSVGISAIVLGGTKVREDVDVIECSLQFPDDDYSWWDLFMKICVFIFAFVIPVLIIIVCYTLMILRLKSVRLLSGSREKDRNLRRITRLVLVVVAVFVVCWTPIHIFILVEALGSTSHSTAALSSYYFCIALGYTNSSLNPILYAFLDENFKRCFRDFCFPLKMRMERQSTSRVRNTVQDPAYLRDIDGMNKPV

| Compound | % inhib if other than 50% [%] |
| --- | --- |
| O=C(O)c1cc(Br)cnc1N1CCC(NC2CCCCC2)CC1 [compound 34] | 85 |

Same assay, conditions: OPRK1 antagonist assay vs EC80 U-50488

| Compound | IC50 [nM] |
| --- | --- |
| Cc1cc(-c2nc(C3CC3)no2)c(N2CCC(NC3CCCCC3)CC2)nn1 [compound 457] | 24 |
| CO[C@@H]1CN(c2nc(C)c(C)cc2-c2nc(C)no2)CC[C@@H]1NC1CCCCC1 [compound 342] | 48 |
| COC(=O)c1cnc(N2CCC(NC3CCCCC3)C(CO)C2)c(Br)c1 (centres unmarked) [compound 102] | 13000 |
| CO[C@H]1CN(c2nc3c(C)cc(C)cc3cc2-c2nc(C)no2)CC[C@H]1NC1CCCCC1 [compound 362] | 3 |
| COC(=O)c1cc(-c2ccccc2)cnc1N1CCC(NC2CCCCC2)CC1 [C13] | > 10000 |
| Cc1ccc2nc(N3CCC(NC(C)C)CC3)c(-c3nc(C)no3)cc2c1 [C73] | > 10000 |
| Cc1ccc2nc(N3CCC(NC4CCCCCC4)CC3)c(-c3nc(C)no3)cc2c1 [compound 367] | 2 |
| CCOC(=O)c1cc(C(N)=O)c(C)nc1N1CCC(NC2CCCCC2)CC1 [C28] | > 10000 |
| CCOC(=O)c1c(C(F)(F)F)ccnc1N1CCC(NC2CCCCC2)CC1 [C26] | > 10000 |
| CCC(CC)C(=O)NC1CCN(c2nc3ccc(C)cc3cc2-c2nc(C)no2)CC1 [C78] | > 10000 |
| CO[C@@H]1CN(c2ncc(C)cc2-c2noc(C)n2)CC[C@@H]1NC1CCCCC1 [compound 399] | 953 |
| Cc1cc(-c2noc(C)n2)c(N2CCC(NC3CCCC[C@@H]3O)CC2)nn1 (some centres unmarked) [compound 452] | 47 |
| COC(=O)c1cc(C2CC2)cnc1N1CCC(NC2CCCCC2)CC1 [C15] | > 10000 |
| CCc1noc(-c2cc(C)cnc2N2CCC(NC3CCCCC3)C(OC)C2)n1 (centres unmarked) [compound 391] | 105 |
| CCc1noc(-c2cc3cc(C)ccc3nc2N2CC[C@@H](NC3CCCCC3)[C@H](O)C2)n1 [compound 335] | 113 |
| Cc1ccc2nc(N3CCC(NC4CCOC4)CC3)c(-c3noc(C)n3)cc2c1 (centres unmarked) [compound 432] | 22 |
| COC(=O)c1cc(C2=CCCCC2)cnc1N1CCC(NC2CCCCC2)CC1 [C17] | > 10000 |
| COC(=O)c1cc(Br)cnc1N1CCC(NC(=O)OC(C)(C)C)CC1 [C2] | > 10000 |
| Cc1ccc2nc(N3CCN(CC4CCCCC4)C(CO)C3)c(-c3nc(C)no3)cc2c1 (centres unmarked) [C76] | > 10000 |
| Cc1ccc2nc(N3CCC(NC4CCCCC4CO)CC3)c(-c3nc(C)no3)cc2c1 (centres unmarked) [compound 368] | 7 |
| COC(=O)c1cc(Br)cnc1N1CCC(NC2CCC(O)CC2)CC1 (centres unmarked) [C6] | > 10000 |
| COC(=O)c1cnc(N2CCC(NC3CCCCC3)CC2)c(Br)c1 [C43] | 15000 |
| Cc1ccc(-c2nc(C)no2)c(N2CCC(NC3CCCCC3)CC2)n1 [compound 387] | 89 |
| COC(=O)c1ccc(C(F)(F)F)nc1N1CCC(NC2CCCCC2)CC1 [C24] | > 10000 |
| Cc1cnc(N2CCC(NCC(C)C)CC2)c(-c2nc(C)no2)c1 [compound 393] | 346 |
| COC(=O)c1cc(C#N)c(N2CCC(NC3CCCCC3)C(CO)C2)nc1C (centres unmarked) [C56] | > 20000 |
| CO[C@H]1CN(c2nnc(C)cc2-c2nc(C3CC3)no2)CC[C@H]1NC1CCCCC1 [compound 456] | 6 |

| Compound | IC50 [nM] |
| --- | --- |
| Cc1ccc2nc(N3CCC(N)CC3)c(-c3nc(C)no3)cc2c1 [C82] | > 10000 |
| Cc1cnc(N2CCC(NC3CCOCC3)CC2)c(-c2nc(C3CC3)no2)c1 [compound 396] | 2260 |
| CO[C@H]1CN(c2ncc(C)cc2-n2ccc(C)n2)CC[C@H]1NC1CCCCC1 [compound 366] | 19 |
| CCO/N=C/c1cc2cc(C)ccc2nc1N1CCC(NC2CCCCC2)CC1 [compound 460] | 141 |
| Cc1ccc2nc(NCCCNC3CCOCC3)c(-c3nc(C)no3)cc2c1 [C85] | > 10000 |
| Cc1noc(-c2cc3c(nc2N2CC[C@@H](NC4CCCCC4)[C@H](O)C2)CCCC3)n1 [compound 192] | 199 |
| CO[C@H]1CN(c2ncc(C)cc2-c2nc(C3CC3)no2)CC[C@H]1NC1CCCCC1 [compound 398] | 18 |
| COC(=O)c1cc(C#N)c(N2CCC(NC3CCCCC3)C(O)C2)nc1C (centres unmarked) [C57] | > 20000 |
| O=Cc1cc(Br)cnc1N1CCC(NC2CCCCC2)C(CO)C1 (centres unmarked) [C46] | > 10000 |
| O=Cc1cc(Br)cnc1N1CCC(NC2CCCCC2)CC1 [C45] | > 10000 |
| Cc1ccc2nc(NCCCNC3CCCCC3)c(-c3nc(C)no3)cc2c1 [C86] | > 10000 |
| COC(=O)c1cc(C#N)c(N2CCC(NC3CCCCC3)CC2)nc1C [C55] | > 20000 |
| CO[C@@H]1CN(c2ncc(C)cc2-c2nc(C)no2)CC[C@@H]1NC1CCCC1 [compound 345] | 104 |
| CO[C@@H]1CN(c2nc3ccccc3nc2-c2nc(C)no2)CC[C@@H]1NC1CCCCC1 [compound 334] | 161 |
| Cc1ccc2nc(N3CCC(NC4CCCC4)CC3)c(-c3noc(C)n3)cc2c1 [compound 414] | 9 |
| Cc1ccc2nc(N3CCC(N[C@H](C)C(C)C)CC3)c(-c3noc(C)n3)cc2c1 [compound 524] | 57 |
| CO[C@H]1CN(c2nc3ccc(C)cc3cc2-c2nc(C3CC3)no2)CC[C@H]1NC1CCCCC1 [compound 337] | 0.73 |
| COC(=O)c1cc(Br)cnc1N1CCC(NCc2ccccc2O)CC1 [C22] | > 10000 |
| COC(=O)c1cnc(N2CCC(N(C(=O)OC(C)(C)C)C3CCCCC3)CC2)c(Br)c1 [C44] | > 10000 |
| COC1CN(c2ncc(C)cc2-n2cc(C)cn2)CCC1NC1CCCCC1 (centres unmarked) [C92] | 58000 |
| CCOC(=O)CCNC1CCN(c2nc3ccc(C)cc3cc2-c2nc(C)no2)CC1 [compound 407] | 341 |
| Cc1nc(-c2c(N3CCC(NCC(C)C)CC3)nc3ccccc3c2C)no1 [compound 448] | 226 |
| Cc1noc(-c2ccc(CO)nc2N2CCC(NC3CCCCC3)CC2)n1 [compound 428] | 101 |
| O=C(c1ccccc1)N1CCC(N[C@@H]2CCCC[C@H]2O)CC1 [C10] | > 10000 |
| COC(=O)c1cc(NC(=O)CN)cnc1N1CCC(NC2CCCCC2)CC1 [C41] | > 10000 |
| CO/N=C/c1cc2cc(C)ccc2nc1N1CCC(NC2CCCCC2)CC1 [compound 459] | 15 |
| Cc1ccc2nc(N3CCC(NC4CCC[C@@H]4O)CC3)c(-c3noc(C)n3)cc2c1 (some centres unmarked) [compound 418] | 50 |

| Compound | IC50 [nM] |
| --- | --- |
| COC(=O)c1cc(Br)cnc1N1CCC(Nc2ccccc2)CC1 [C7] | > 10000 |
| CC(=O)c1cc(-c2ccccc2)cnc1N1CCC(NC2CCCCC2)C(CO)C1 (centres unmarked) [C64] | > 10000 |
| Cc1cc(-c2noc(C)n2)c(N2CCC(NC3CCCCC3)CC2)nn1 [compound 420] | 3 |
| Cc1ccc2nc(N3CCC(NCC(C)C)CC3)c(-c3ccc(C)nn3)cc2c1 [compound 442] | 324 |
| CO[C@@H]1CN(c2nc3ccc(C)cc3cc2-c2nc(C)no2)CC[C@@H]1NC1CCCC1 [compound 347] | 32 |
| COC(=O)c1cnc(N2CCC(NC3CCCCC3)CC2)c(NC(C)=O)c1 [C39] | > 10000 |
| COC(=O)c1cc(NC(=O)c2cc(C)on2)cnc1N1CCC(NC2CCCCC2)CC1 [C34] | > 10000 |
| CO[C@H]1CN(c2nc3ccccc3cc2-c2ccc(C)nn2)CC[C@H]1NC1CCCCC1 [compound 344] | 16.8 |
| Cc1ccc2nc(N3CCC(NC4CCC[C@@H]4O)CC3)c(-c3nc(C)no3)cc2c1 (some centres unmarked) [compound 372] | 15 |
| CNC(=O)c1cc2cc(C)ccc2nc1N1CCC(NC2CCCCC2)C(CO)C1 (centres unmarked) [C89] | > 10000 |
| Cc1ccc2nc(N3CCC(NC4CCCC4)CC3)c(-c3ccc(C)nn3)cc2c1 [compound 445] | 55 |
| Cc1ccc2nc(N3CCC(NC(C)CC(C)C)CC3)c(-c3nc(C)no3)cc2c1 (centres unmarked) [C72] | > 10000 |
| Cc1ccc2nc(N3CCC(C)(NC4CCOCC4)CC3)c(-c3nc(C)no3)cc2c1 [C74] | > 10000 |
| Cc1cc(C)c2nc(N3CCC(NCC(C)C)CC3)c(-c3nc(C)no3)cc2c1 [compound 364] | 18 |
| COC1CN(c2ncc(C)cc2-n2ccc(C)n2)CCC1NC1CCCCC1 (centres unmarked) [compound 358] | 9 |
| CC(=O)c1cc(C2CC2)cnc1N1CCC(NC2CCCCC2)C(CO)C1 (centres unmarked) [C63] | > 10000 |
| COC(=O)c1cc(Br)cnc1N1CCC(N(C(C)=O)C2CCCCC2)C(OC(C)=O)C1 (centres unmarked) [C48] | > 10000 |
| Cc1nc(-c2c(N3CCC(NC4CCOCC4)CC3)nc3ccccc3c2C)no1 [compound 447] | 1150 |
| Cc1ccc2nc(N3CCC(NC4CCCCC4O)CC3)c(-c3ccc(C)nn3)cc2c1 (centres unmarked) [compound 451] | 94 |
| CCC(CC)NC1CCN(c2nc3ccc(F)cc3cc2-c2noc(C)n2)CC1 [compound 490] | 248 |
| c1cnnc(-c2cc3ccccc3nc2N2CCC(NC3CCCCC3)CC2)c1 [compound 464] | 87 |
| Cc1cc(C)c2nc(N3CCC(NC4CCOCC4)CC3)c(-c3nc(C)no3)cc2c1 [compound 363] | 10 |
| COC(=O)c1cc(NS(C)(=O)=O)cnc1N1CCC(NC2CCCCC2)CC1 [C30] | > 10000 |
| Cc1ccc2nc(N3CCC(NC[C@H](C)O)CC3)c(-c3noc(C)n3)cc2c1 [compound 424] | 422 |
| CO[C@H]1CN(c2nc(C)ccc2-c2ccc(C)nn2)CC[C@H]1NC1CCCCC1 [compound 426] | 1970 |
